Measurements taken from patent US20070032505A1, “Crystalline form of gatifloxacin” (priority 2003, published 2007).
Values joined by “and” are separate entries in the source; they are usually repeats but may differ in a detail not shown here. Equal entries are not always repeated.

Columns and labels:
[1] = stability test: water content (Karl-Fischer) and powder X-ray diffractogram in contact with the atmosphere at room temperature; type: physicochemical
From the text: The new crystalline form of gatifloxacin which is obtainable by this process has an initial water content ranging between 0.8 and 1.6% and stabilises with a water content ranging between 2.5 and 4.5% by weight, when it is in contact with the atmosphere at room temperature and with a relative humidity comprised between 20 and 70%, and it remains stable for at least 2 months in such conditions.
The crystalline form of gatifloxacin object of the present invention is characterized by its powder X-ray diffractogram (FIG. 1), ^13C nuclear magnetic resonance spectrum (FIG. 3) and analysis of water content by the Karl-Fischer method.
For recording the powder X-ray diffractograms a PHILIPS X'Pert automatic diffractometer equipped with a Cu tube and a graphite secondary monochromator of the following technical specifications was used: • Cu wavelength Kα: 1.5419 Å; • receiving slit: 0.1 mm; • Soller: 0.04 radians; • dispersion slit and divergence slit: 1°
The tube worked at 40 kV and 50 mA. Sweeping was carried out continuously in the 2θ interval between 5 and 40° with pass of 0.03° and 1-second pass time.

[2] = disintegration and dissolution rate properties; type: physicochemical; conditions: form containing between 2.5 and 4.5% of water by weight

SMILES: COc1c(N2CCNC(C)C2)c(F)cc2c(=O)c(C(=O)O)cn(C3CC3)c12 (centres unmarked) [form I gatifloxacin, 1-cyclopropyl-6-fluoro-1,4-dihydro-ε-methoxy-7-(3-methyl-1-piperazinyl)-4-oxo-3-quinolinecarboxylic acid]
- % water by weight ([1]; 3 hours, room temperature, in contact with the atmosphere): 2.2 % by weight
- % water by weight ([1]; 6 hours, room temperature, in contact with the atmosphere): 2.3 % by weight
- % water by weight ([1]; 3 days, room temperature, in contact with the atmosphere): 3.22 % by weight and 3.2 % by weight
- % water by weight ([1]; 13 days, room temperature, in contact with the atmosphere): 2.9 % by weight
- % water by weight ([1]; 17 days, room temperature, in contact with the atmosphere): 3.0 % by weight
- % water by weight ([1]; 68 days, room temperature, in contact with the atmosphere): 3.3 % by weight
- period of time to stabilise ([1]; longer if relative humidity lower than 20%): three
- powder X-ray diffractogram over the stability test period ([1]; room temperature, in contact with the atmosphere, up to 68 days): remains substantially unchanged
- time the water content remains stable ([1]; room temperature, relative humidity between 20 and 70%): at least 2 months
- % water by weight ([1]; time 0 (at the time of taking it out of the desiccator)): 1.5 % by weight
- properties of disintegration and dissolution rate [2]: excellent
